Paper PMC8400955 (Pharmaceuticals, 2021)
“And” between values parts separate entries of the source, which are not always exact repeats. Equal values may be shown once.

Columns and labels:
CYP2E1 = CYP2E1 (Homo sapiens, UniProt P05181); experiment: CYP phenotyping, recombinant CYP2E1
CYP2D6 = CYP2D6 (Homo sapiens, UniProt P10635); experiment: CYP inhibition in human liver microsomes, CYP2D6; format: in vitro ADME; conditions: HLM, marker substrate Dextromethorphan
Method: . The inhibition of CYP2B6 and 3A4 (when midazolam was used as the substrate) by ZB716 was not observed. The inhibitory potential of ZB716 on human CYP enzyme activities appears relatively low.
The final concentrations of ZB716 in the incubation system were 0, 0.05, 0.15, 0.5, 1.5, 5, and 15 µM (final organic solvent concentration ≤ 1%). […] . […] The concentrations of the isoform-specific metabolites derived from marker substrates were measured by UPLC–MS/MS. The IC50 values were calculated from the percentages of the rate of the metabolite formation relative to non-inhibited controls vs. the concentrations of ZB716 or positive control inhibitors. All incubations were performed in triplicate. The mean of the enzyme activity (% of non-inhibited control) for each concentration was plotted against the log inhibitor concentration, and fitted to an IC50 curve.

CYP3A5 = CYP3A5 (Homo sapiens, UniProt P20815); experiment: CYP phenotyping, recombinant CYP3A5
Chain of CYP3A5 (P20815 whole entry): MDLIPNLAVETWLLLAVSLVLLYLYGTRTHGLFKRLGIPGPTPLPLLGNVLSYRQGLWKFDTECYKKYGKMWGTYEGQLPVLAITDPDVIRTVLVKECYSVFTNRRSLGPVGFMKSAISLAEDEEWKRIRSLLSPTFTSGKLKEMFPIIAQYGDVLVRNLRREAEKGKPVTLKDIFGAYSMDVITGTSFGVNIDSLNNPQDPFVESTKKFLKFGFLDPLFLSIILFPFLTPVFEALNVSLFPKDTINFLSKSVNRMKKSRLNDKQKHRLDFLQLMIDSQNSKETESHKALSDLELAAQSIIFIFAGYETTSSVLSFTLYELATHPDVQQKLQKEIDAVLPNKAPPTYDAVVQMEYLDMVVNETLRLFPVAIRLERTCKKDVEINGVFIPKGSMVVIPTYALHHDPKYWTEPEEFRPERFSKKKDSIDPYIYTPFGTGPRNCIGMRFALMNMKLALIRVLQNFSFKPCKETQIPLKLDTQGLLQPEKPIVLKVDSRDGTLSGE

[1] = Metabolic stability in human hepatocytes; format: in vitro ADME
Method: (§1) Hepatocytes of humans (#X008001), dogs (#M00205), rats (#M00005), and mice (#M005052) were purchased from BioIVT, NY, USA. Monkey hepatocytes were procured from RILD, Shanghai, China. The metabolic stability of ZB716 in human, monkey, dog, rat and mouse hepatocytes was investigated by incubating ZB716 with human, monkey, dog, rat, and mouse hepatocytes (0.5 × 10^6 cells/mL), or with incubation medium only.
(§2) parent disappearance vs. incubation time curve.
(§3) Scaled-up Clint = kV/N × Scaling Factor
(§4) metabolite formed during the reaction.

human hepatocytes = experiment: Metabolic stability in human hepatocytes; format: in vitro ADME; conditions: 1 μM
Method: as §1, §2, §3, §4

[2] = Metabolic stability in rat hepatocytes; format: in vitro ADME
Method: as §1, §2, §3, §4

rat hepatocytes = experiment: Metabolic stability in rat hepatocytes; format: in vitro ADME; conditions: 1 μM
Method: as §1, §2, §3, §4

[3] = Single-dose PK and bioavailability in dogs; format: in vivo; conditions: beagle, dog, plasma; for bioavailability: PO 6 mg/kg/day vs IV 2 mg/kg/day; for AUC(0-t) / Cmax / Tmax: single dose
Method: […] […] All groups had one male and one female animal. Plasma samples were collected at various timepoints, through to 24 h post-dose, and analyzed for ZB716.
Four-to-six-week-old Sprague Dawley rats (Crl: CD (SD)) (SPF/VAF) were purchased from Beijing Vital River Laboratory Animal Technology, Co. Ltd.). Six-month-old beagle dogs were purchased from Beijing Marshall Biotechnology Co. Ltd. Animals were quarantined/acclimated for 2–6 weeks prior to dose initiation. Both Sprague Dawley rats and beagle dogs were given oral administration of ZB716 (20% PG, 5% Solutol, and 75% of 40% HP-β-CD in water) at different dose levels. After treatment with the test articles, whole blood was collected from each study animal by puncture of the tail vein (0.4 mL of whole blood from rats) and/or the peripheral vein (0.6 mL of whole blood from dogs) into tubes containing K2EDTA at each timepoint: pre-dose, and 0.5, 1, 2, 4, 8, and 24 h post-dose. The plasma samples were divided into 2 aliquots (approximately equal in volume) and stored frozen at −75 ± 15 °C within 2 h of the collection until analysis at Pharmaron, China.
The stock solution of ZB716 (5.0 mg/mL) and ZB716-d6 (1 mg/mL) in ACN:DI Water = 1:1 was prepared and stored at −20 ± 5 °C. The desired serial concentrations of working reference analyte solutions were achieved by diluting a stock analyte solution with 50% acetonitrile (0.1% formic acid) in water solution. The bioanalytical LC–MS/MS method was validated for quantitative determination of ZB716 in Sprague Dawley rat plasma and beagle dog plasma, with acceptable selectivity, sensitivity, calibration curve, precision, and accuracy. This method is applicable for the determination of ZB716 in Sprague Dawley rat plasma and beagle dog plasma, with a lower limit of quantification of 20.0 ng/mL, and an upper limit of quantification of 10,000 ng/mL.
Five microliters of diluted supernatant was injected into the LC–MS/MS system (Shimadzu LC30AD HPLC system with a SynergiTM 4 μm Fusion-RP 80 Å (50 × 2 mm) column using gradient elution and a Triple Quad 5500 mass spectrometer) for quantitative analysis. The mobile phases used were 0.1% formic acid in deionized water and 0.1% formic acid in acetonitrile. The pharmacokinetic parameters T1/2 (the biological half-life), Cmax (maximal concentration), Tmax (time at which Cmax is observed), and AUC (area under the plasma concentration–time curve) were calculated from the plasma concentration versus time data using WinNonlin (Phoenix^TM, version 8.1, Mountain View, CA, USA). All PK studies were conducted by Pharmaron in Beijing, China.

[4] = read-out: Estimated In Vitro t1/2

Chain of CYP2E1 (P05181 whole entry): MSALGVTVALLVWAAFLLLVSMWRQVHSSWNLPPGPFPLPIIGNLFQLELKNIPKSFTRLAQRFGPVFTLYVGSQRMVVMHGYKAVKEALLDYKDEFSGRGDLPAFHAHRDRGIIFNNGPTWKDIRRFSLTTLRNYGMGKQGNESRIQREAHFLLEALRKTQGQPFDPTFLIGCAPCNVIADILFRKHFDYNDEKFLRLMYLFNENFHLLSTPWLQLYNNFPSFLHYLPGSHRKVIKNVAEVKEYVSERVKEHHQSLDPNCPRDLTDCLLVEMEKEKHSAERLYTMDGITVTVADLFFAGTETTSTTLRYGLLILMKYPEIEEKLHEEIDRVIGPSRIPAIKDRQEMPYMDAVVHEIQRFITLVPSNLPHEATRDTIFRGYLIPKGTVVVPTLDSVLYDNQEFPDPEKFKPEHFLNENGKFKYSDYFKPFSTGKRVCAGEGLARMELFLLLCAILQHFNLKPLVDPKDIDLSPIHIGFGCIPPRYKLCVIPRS
Chain of CYP2D6 (P10635 whole entry): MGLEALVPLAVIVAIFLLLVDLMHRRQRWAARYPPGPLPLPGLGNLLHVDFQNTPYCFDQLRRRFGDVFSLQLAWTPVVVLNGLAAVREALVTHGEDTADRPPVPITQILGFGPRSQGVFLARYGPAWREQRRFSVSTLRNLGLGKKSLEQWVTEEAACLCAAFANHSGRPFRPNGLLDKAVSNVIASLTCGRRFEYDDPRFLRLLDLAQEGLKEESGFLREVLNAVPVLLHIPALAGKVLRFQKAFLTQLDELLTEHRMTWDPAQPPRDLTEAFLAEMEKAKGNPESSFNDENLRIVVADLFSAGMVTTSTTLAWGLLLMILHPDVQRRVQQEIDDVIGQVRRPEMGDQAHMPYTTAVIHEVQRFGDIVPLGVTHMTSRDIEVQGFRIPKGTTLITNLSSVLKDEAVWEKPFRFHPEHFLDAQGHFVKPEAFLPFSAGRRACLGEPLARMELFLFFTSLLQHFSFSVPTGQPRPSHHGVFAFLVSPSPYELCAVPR

Structure (SMILES): C[C@]12CC[C@@H]3c4ccc(B(O)O)cc4C[C@@H](CCCCCCCCC[S+]([O-])CCCC(F)(F)C(F)(F)F)[C@H]3[C@@H]1CC[C@@H]2O (stereo partly drawn) [ZB716, fulvestrant-3-boronic acid]
- half-life at 2 µM (CYP2E1; human): 19.4 ± 1.2 min
- Clint (CYP2E1; recombinant CYP2E1, 2 µM ZB716): 0.716 ± 0.044 µL/min/pmol CYP
- IC50 (CYP2D6): 12.5 µM
- half-life at 2 µM (CYP3A5; human): 2.06 ± 0.33 min
- Clint (CYP3A5; recombinant CYP3A5, 2 µM ZB716): 6.86 µL/min/pmol CYP and 6.86 ± 1.12 µL/min/pmol CYP
- half-life at 1 μM [1, 4]: 34.9 ± 1 min
- hepatocyte CLint at 1 μM ([1]; read-out: In Vitro Clint): 39.7 ± 1.1 µL/min/1e6 cells
- CLint scaled at 1 μM ([1]; read-out: Scaled-Up Clint): 101 ± 3 mL/min/kg
- Remaining at 120 min (human hepatocytes): 7.98 ± 0.7%
- half-life at 1 μM [2, 4]: 28.4 ± 0.9 min
- hepatocyte CLint at 1 μM ([2]; read-out: In Vitro Clint): 48.7 ± 1.5 µL/min/1e6 cells
- CLint scaled at 1 μM ([2]; read-out: Scaled-Up Clint): 228 ± 7 mL/min/kg
- Remaining at 120 min (rat hepatocytes): 5.19 ± 0.32%
- bioavailability ([3]; female, F): 6.74%
- AUC(0-t) ([3]; female, IV 2 mg/kg/day, F): 4310 ng·h/mL
- Cmax ([3]; female, IV 2 mg/kg/day, F): 2710 ng/mL
- Tmax ([3]; female, IV 2 mg/kg/day, F): 5 min
- AUC(0-t) ([3]; female, PO 6 mg/kg/day, F): 872 ng·h/mL
- Cmax ([3]; female, PO 6 mg/kg/day, F): 213 ng/mL
- Tmax ([3]; female, PO 6 mg/kg/day, F): 30 min
- AUC(0-t) ([3]; female, PO 30 mg/kg/day, F): 3460 ng·h/mL
- Cmax ([3]; female, PO 30 mg/kg/day, F): 964 ng/mL
- Tmax ([3]; female, PO 30 mg/kg/day, F): 60 min
- AUC(0-t) ([3]; female, PO 100 mg/kg/day, F): 5840 ng·h/mL
- Cmax ([3]; female, PO 100 mg/kg/day, F): 957 ng/mL
- Tmax ([3]; female, PO 100 mg/kg/day, F): 30 min
- bioavailability ([3]; male, M): 6.18%
- AUC(0-t) ([3]; male, IV 2 mg/kg/day, M): 3030 ng·h/mL
- Cmax ([3]; male, IV 2 mg/kg/day, M): 2160 ng/mL
- Tmax ([3]; male, IV 2 mg/kg/day, M): 5 min
- AUC(0-t) ([3]; male, PO 6 mg/kg/day, M): 563 ng·h/mL
- Cmax ([3]; male, PO 6 mg/kg/day, M): 157 ng/mL
- Tmax ([3]; male, PO 6 mg/kg/day, M): 30 min
- AUC(0-t) ([3]; male, PO 30 mg/kg/day, M): 5520 ng·h/mL
- Cmax ([3]; male, PO 30 mg/kg/day, M): 988 ng/mL
- Tmax ([3]; male, PO 30 mg/kg/day, M): 240 min
- AUC(0-t) ([3]; male, PO 100 mg/kg/day, M): 7500 ng·h/mL
- Cmax ([3]; male, PO 100 mg/kg/day, M): 1140 ng/mL
- Tmax ([3]; male, PO 100 mg/kg/day, M): 120 min
